What was measured:
[1] = Randomised placebo-controlled double-blind study, cognitive part of Hamilton Anxiety Scale (HAM-A; concentration and memory items); type: in vivo
Method: (§1) The cognition enhancement properties of deramciclane were studied in a randomised placebo-controlled double-blind study. The subjects were randomly assigned to four parallel groups to receive one tablet twice daily (b.i.d) of a placebo, 5 mg (=10 mg/day), 15 mg (=30 mg/day), or 30 mg (=60 mg/day) deramciclane. The study started with a one-week placebo run-in period, followed by an eight-week placebo-controlled active treatment and a two-week placebo washout period.
(§2) The efficacy of deramciclane on cognition enhancement was studied using the cognitive part of Hamilton Anxiety Scale (HAM-A) which consists of the concentration and memory items. Cognition enhancement was also assessed using Udvalg for Kliniske Undersogelser (UKU) scale.

[2] = Randomised placebo-controlled double-blind study, Udvalg for Kliniske Undersogelser (UKU) scale, concentration difficulties; type: in vivo; conditions: 5, 15, 30 mg b.i.d
Method: as §1, §2

## CN(C)CCO[C@]1(c2ccccc2)C[C@H]2CC[C@]1(C)C2(C)C [deramciclane, (1R,2S,4R)-(−)-2-phenyl 2-(dimethylaminoethoxy)-1,7,7-trimethyl-bicyclo[2.2.1]heptane]
[1]; After 8 weeks, 5 mg b.i.d
  HAM-A Intellectual, cognitive: subjects rated Mild, number (%): 20 (47%)
  HAM-A Intellectual, cognitive: subjects rated Moderate, number (%): 6 (14%)
  HAM-A Intellectual, cognitive: subjects rated Not Present, number (%): 15 (35%)
  HAM-A Intellectual, cognitive: subjects rated Severe, number (%): 2 (5%)
[1]; After 8 weeks, 15 mg b.i.d.
  HAM-A Intellectual, cognitive: subjects rated Mild, number (%): 19 (43%)
  HAM-A Intellectual, cognitive: subjects rated Moderate, number (%): 3 (7%)
  HAM-A Intellectual, cognitive: subjects rated Not Present, number (%): 21 (48%)
  HAM-A Intellectual, cognitive: subjects rated Severe, number (%): 1 (2%)
[1]; After 8 weeks, 30 mg b.i.d.
  HAM-A Intellectual, cognitive: subjects rated Mild, number (%): 14 (30%)
  HAM-A Intellectual, cognitive: subjects rated Moderate, number (%): 10 (22%)
  HAM-A Intellectual, cognitive: subjects rated Not Present, number (%): 22 (48%)
  HAM-A Intellectual, cognitive: subjects rated Severe, number (%): 0
[1]; Baseline, 5 mg b.i.d group
  HAM-A Intellectual, cognitive: subjects rated Mild, number (%): 17 (31%)
  HAM-A Intellectual, cognitive: subjects rated Moderate, number (%): 33 (61%)
  HAM-A Intellectual, cognitive: subjects rated Not Present, number (%): 3 (6%)
  HAM-A Intellectual, cognitive: subjects rated Severe, number (%): 1 (2%)
[1]; Baseline, 15 mg b.i.d. group
  HAM-A Intellectual, cognitive: subjects rated Mild, number (%): 12 (24%)
  HAM-A Intellectual, cognitive: subjects rated Moderate, number (%): 35 (69%)
  HAM-A Intellectual, cognitive: subjects rated Not Present, number (%): 3 (6%)
  HAM-A Intellectual, cognitive: subjects rated Severe, number (%): 1 (2%)
[1]; Baseline, 30 mg b.i.d. group
  HAM-A Intellectual, cognitive: subjects rated Mild, number (%): 15 (28%)
  HAM-A Intellectual, cognitive: subjects rated Moderate, number (%): 28 (53%)
  HAM-A Intellectual, cognitive: subjects rated Not Present, number (%): 3 (6%)
  HAM-A Intellectual, cognitive: subjects rated Severe, number (%): 7 (13%)
[1]; eight-week treatment, 5, 15 or 30 mg b.i.d
  Effect on cognition measured by the cognitive part of the HAM-A: improved the cognition
[2]
  Trend analysis (dose-response relationship), concentration difficulties, UKU-scale: statistically significant positive correlation

Source: US6335371B1, “Method for inducing cognition enhancement” (Orion Corporation, priority 2000, dated 2002)
